Test results taken from patent publication US12018024B2, “Compounds and compositions for the treatment of cryptosporidiosis” (Novartis AG, priority 2020, dated 2024).
Where two headings read alike, the source gives them in different places.

Tests used:
[1] = biological target: C. parvum PI(4)K (Cryptosporidium parvum, UniProt Q5CVD3); assay: CpPI(4)K enzymatic assay (Transcreener ADP2 FP); format: biochemical
Excerpt: Baculovirus expression and purification of C. parvum phosphatidylinositol 4-kinase: The full-length coding sequence of C. parvum PI(4)K (cgd8_4500, 1114 amino acids) was codon-optimized for baculovirus expression, synthesized and cloned into pFastBac-HTb (Invitrogen 10584-027) in frame with the amino-terminal polyhistidine tag using the BamHI and HindIII restriction sites. Recombinant pFastBacHTb-CpPI(4)K bacmid clones were generated by site-specific transposition in E. coli DH10Bac (Invitrogen 10361-012). The bacmid sequence was confirmed by direct DNA sequencing to confirm a lack of mutations across the whole gene. The subsequent steps for bacmid isolation, transfection and selection of the recombinant viruses were performed according to the manufacturer's protocol (Bac-to-Bac system #10359, Invitrogen).
SF9 cells, cultured in […] serum-free medium, were transfected with recombinant baculovirus at 1/200 (v/v) and incubated at 27° C. for 72 h. The pellets were collected after centrifugation and re-suspended in cell lysis buffer (20 mM Tris-HCl, pH 7.5, 300 mM NaCl, 1 mM DTT, 20 mM imidazole, 0.01% Triton X-100 and 1× complete protease inhibitor cocktail without EDTA (Roche Diagnostics 04693116001)). The cell suspension was lysed by sonication and the clarified supernatant was loaded onto a 1 ml HisTrap affinity column (GE Healthcare) pre-equilibrated with buffer A (20 mM Tris-HCl, pH 7.5, 300 mM NaCl, 1 mM DTT, 20 mM Imidazole, and 1× complete protease inhibitor cocktail without EDTA). The column was washed with buffer B (buffer A containing 45 mM imidazole) and the bound protein of interest was eluted with buffer C (buffer A with 90 mM imidazole). The fractions containing CpPI(4)K were pooled, concentrated using Amicon Ultra-15 and purified by a gel-filtration column (Hi-Load 26/60 Superdex 200, GE Healthcare) equilibrated with 20 mM Tris, pH 7.5, 300 mM NaCl, 1 mM DTT and 1× protease inhibitor cocktail without EDTA. The concentrations of the purified protein (Mw 132.39 kda) was determined by using the protein molar extinction coefficient (ε280 nm=133,810 M^−1 cm^−1). Aliquots were flash frozen in liquid nitrogen and immediately stored at −80° C.
PI(4)K enzymatic Assay The CpPI(4)K enzymatic assay was performed as described earlier with a some modifications (McNamara et al., 2013). Briefly, L-α-phosphatidylinositol (Avanti Polar Lipid 840046), dissolved in 3% n-octylglucoside (Roche Diagnostics 10634425001), was used as the lipid substrate for the PI(4)K activity assay. CpPI(4)K was assayed using Transcreener ADP2 FP detection kit (BellBrook 3010) in a black, solid 384-well plate (Corning 3575). The final assay volume was 10 μl and contained 3 nM of the respective CpPI(4)K construct in 10 mM Tris, pH 7.5, 1 mM DTT, 3 μM ATP, 5 mM Mn2+, 0.05% Triton X-100 and 10 μM phosphatidylinositol/octylglucoside. The enzyme reaction was performed for 50 minutes at room temperature and was stopped by adding 10 μl of detection mix containing 1× stop buffer (50 mM HEPES, pH7.5, 400 mM NaCl, 20 mM EDTA, and 0.02% Brij-35), 2 nM AMP Alexa Fluor 633 tracer, and 20 μg ml^−1 ADP antibody. Fluorescence polarization measurements were performed on the Infinite M1000 plate reader (Tecan) with λex=635 nm and λem=680 nm (20-nm bandwidth). IC50 values were calculated using Graphpad Prism software.

[2] = tested on: Cryptosporidium parvum; assay: Cytopathic effect (CPE) based assay, C. parvum-infected HCT-8 cells; format: cell-based; conditions: HCT-8, 48 h, read-out: (b) C.p.* CPE EC50 (μM)
Procedure: (§1) Human ileocecal colorectal adenocarcinoma cells (HCT-8 [HRT-18] ATCC, CCL-34) were maintained in T-175 flasks (Corning, 431080) in complete growth medium (RPMI-1640 medium (Gibco, 11875) supplemented with 10% heat-inactivated horse serum (Gibco, 26050), 1× MEM non-essential amino acids (Gibco, 11140), 10 mM HEPES (Gibco, 15630), 100 units/mL penicillin, and 100 units/mL streptomycin) at 37° C. and 5% CO2 in a humidified incubator. Cultures were passaged twice weekly using 10 mL of 1× Phosphate-Buffered Saline (PBS) without Ca^2+ and Mg^2+ (Gibco, 20012) for washing and 3-5 mL per T-175 flask of TrypLE Express Enzyme (Gibco, 12604) for dissociation of adherent cells.
Cryptosporidium parvum oocysts purchased from the Sterling Laboratory, University of Arizona (Iowa isolate) were purified from infected calf feces using discontinuous sucrose and cesium chloride centrifugation gradients and stored in PBS solution containing 0.01% Tween 20, 100 units/mL penicillin and 100 units/mL gentamicin.
(§2) Excystaion and infection: Excystation and infection protocols were developed following established methods with some modifications (Gut & Nelson, 1999, Upton et al., 1995, Bessoff et al., 2013). Briefly, oocysts were primed in 1 mL of 10 mM hydrochloric acid in 1× Hank's Balanced Salt Solution (HBSS) (Gibco, 14025) for 10 minutes with agitation at 1000 rpm, 37° C. on an Eppendorf thermomixer, then washed twice with 1 mL of room temperature non-acidic 1× HBSS by centrifugation at 13,000 rpm for 3 minutes at 25° C. Primed oocysts were further excysted at a concentration of 1×10^6 oocysts/μL in parasite infection medium consisting of a pre-warmed and pre-gassed 1:1 formulation of Leibovitz's L-15 medium (Gibco, 11415) and UltraCULTURE medium (Lonza, 12-725F) supplemented with 2 mM sodium taurocholate (Sigma, 86339-1), 10% heat-inactivated horse serum, and 200 μM L-ascorbic acid (Sigma, 95210) at 25° C. for 10 minutes. HCT-8 monolayer cells were infected with excysted cryptosporidium at a specified multiplicity of infection (MOI). All dilutions for subsequent assays were performed in parasite infection medium without sodium taurocholate. Pre-excysted oocysts were enumerated microscopically using a C-Chip disposable hemocytometer (NanoEnTek, DHC-N01).
Compound and assay plate preparation: Compound powders were dissolved in neat DMSO (Fisher, D4121) to 10 mM and stored at 4° C. prior to dilution into source plates. Dilutions were carried out using a Microlab STAR liquid handler (Hamilton) to obtain compound source plates containing the ten-point or eight-point three fold dilutions starting from 10 mM in duplicates. Source plates were stored at 4° C. prior to spotting into assay plates. Before administration, all compound source plates were equilibrated to room temperature. A specified volume of compounds from source plate were spotted to assay plate using an Echo Acoustic liquid handler (LABCYTE, 550) so that the final DMSO concentration was less than 0.5%. Each assay plate a specified number of DMSO-treated negative control wells and a well-studied potent active compound at 100 nM as positive control. As a quality control, all positive and negative-control wells were used to calculate a Z′-value and signal to noise ratio (S:N) for each plate.
Cryptosporidium spp are obligate-intracellular parasites that infect intestinal epithelial cells and the host cell is killed upon parasite egress. […] The loss of epithelial cells is due to both rapid parasite invasion/multiplication/egress and also pro-inflammatory immune response (Adams et al., 1994, Griffiths et al., 1994). We have observed a consistent cytopathic effect (CPE) in HCT-8 cells with C. spp infection the loss of viability of the host cells using CellTiter-Glo reagent.
Confluent HCT-8 cells in T-175 flasks were directly infected with excysted oocysts at an MOI (host to parasite) of 1:2 for C. parvum and 1:4 for C. hominis. […]

[3] = tested on: Cryptosporidium hominis; assay: Cytopathic effect (CPE) based assay, C. hominis-infected HCT-8 cells; format: cell-based
Procedure: as §1
Cryptosporidium hominis oocysts were purchased from the Tufts University Cummings School of Veterinary Medicine (courtesy of Dr. Saul Tzipori). C. hominis oocysts were purified from infected gnotobiotic piglet feces and stored in PBS solution containing 0.01% Tween-20, 100 units/mL penicillin and 100 units/mL gentamicin. C. parvum and C. hominis oocysts less than three months old from the date of shedding were used in infection experiments.
as §2
Compound and assay plate preparation: Compound powders were dissolved in neat DMSO (Fisher, D4121) to 10 mM and stored at 4° C. prior to dilution into source plates. Dilutions were carried out using a Microlab STAR liquid handler (Hamilton) to obtain compound source plates containing the ten-point or eight-point three fold dilutions starting from 10 mM in duplicates. […]

[4] = biological target: H.s. PI(4)K (Homo sapiens, UniProt Q9UBF8); assay: H.s. PI(4)K IC50; format: biochemical; conditions: read-out: (d) H.s.* PI(4)K IC50
[5] = HCT-8 host cells, 48 hours treatment, CellTiter-Glo, read-out: (c) C.h.* CPE EC50

C. parvum PI(4)K, sequence (Q5CVD3 entry or part of it): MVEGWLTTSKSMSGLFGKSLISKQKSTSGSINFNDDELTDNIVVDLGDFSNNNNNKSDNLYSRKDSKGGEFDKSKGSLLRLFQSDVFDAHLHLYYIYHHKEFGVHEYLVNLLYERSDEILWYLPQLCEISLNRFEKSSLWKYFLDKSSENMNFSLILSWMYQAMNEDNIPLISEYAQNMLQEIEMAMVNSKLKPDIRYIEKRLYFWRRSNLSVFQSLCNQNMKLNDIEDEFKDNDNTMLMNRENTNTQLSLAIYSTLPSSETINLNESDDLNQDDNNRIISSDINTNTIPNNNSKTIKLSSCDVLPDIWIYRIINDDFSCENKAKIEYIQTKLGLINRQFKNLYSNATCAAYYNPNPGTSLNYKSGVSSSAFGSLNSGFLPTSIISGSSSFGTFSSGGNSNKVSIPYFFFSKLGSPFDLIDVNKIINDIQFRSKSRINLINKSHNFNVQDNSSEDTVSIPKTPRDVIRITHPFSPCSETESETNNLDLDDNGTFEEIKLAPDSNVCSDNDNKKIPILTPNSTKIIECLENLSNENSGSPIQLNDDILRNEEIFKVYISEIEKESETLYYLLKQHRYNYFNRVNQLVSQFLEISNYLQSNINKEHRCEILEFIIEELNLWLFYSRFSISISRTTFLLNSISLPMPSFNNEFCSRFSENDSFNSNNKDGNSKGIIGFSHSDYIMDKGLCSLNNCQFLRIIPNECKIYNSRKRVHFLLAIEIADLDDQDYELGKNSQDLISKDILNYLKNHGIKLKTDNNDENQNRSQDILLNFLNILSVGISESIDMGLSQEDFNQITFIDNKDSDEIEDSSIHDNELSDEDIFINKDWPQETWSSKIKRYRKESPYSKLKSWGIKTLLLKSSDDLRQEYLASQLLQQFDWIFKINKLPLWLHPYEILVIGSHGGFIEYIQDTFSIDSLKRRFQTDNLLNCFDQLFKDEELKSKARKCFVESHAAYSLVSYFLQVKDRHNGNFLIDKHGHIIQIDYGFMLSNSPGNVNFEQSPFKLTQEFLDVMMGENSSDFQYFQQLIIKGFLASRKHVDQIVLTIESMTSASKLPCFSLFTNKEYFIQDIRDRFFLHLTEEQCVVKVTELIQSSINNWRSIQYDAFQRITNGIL
H.s. PI(4)K, sequence (Q9UBF8 2-816 limits assumed): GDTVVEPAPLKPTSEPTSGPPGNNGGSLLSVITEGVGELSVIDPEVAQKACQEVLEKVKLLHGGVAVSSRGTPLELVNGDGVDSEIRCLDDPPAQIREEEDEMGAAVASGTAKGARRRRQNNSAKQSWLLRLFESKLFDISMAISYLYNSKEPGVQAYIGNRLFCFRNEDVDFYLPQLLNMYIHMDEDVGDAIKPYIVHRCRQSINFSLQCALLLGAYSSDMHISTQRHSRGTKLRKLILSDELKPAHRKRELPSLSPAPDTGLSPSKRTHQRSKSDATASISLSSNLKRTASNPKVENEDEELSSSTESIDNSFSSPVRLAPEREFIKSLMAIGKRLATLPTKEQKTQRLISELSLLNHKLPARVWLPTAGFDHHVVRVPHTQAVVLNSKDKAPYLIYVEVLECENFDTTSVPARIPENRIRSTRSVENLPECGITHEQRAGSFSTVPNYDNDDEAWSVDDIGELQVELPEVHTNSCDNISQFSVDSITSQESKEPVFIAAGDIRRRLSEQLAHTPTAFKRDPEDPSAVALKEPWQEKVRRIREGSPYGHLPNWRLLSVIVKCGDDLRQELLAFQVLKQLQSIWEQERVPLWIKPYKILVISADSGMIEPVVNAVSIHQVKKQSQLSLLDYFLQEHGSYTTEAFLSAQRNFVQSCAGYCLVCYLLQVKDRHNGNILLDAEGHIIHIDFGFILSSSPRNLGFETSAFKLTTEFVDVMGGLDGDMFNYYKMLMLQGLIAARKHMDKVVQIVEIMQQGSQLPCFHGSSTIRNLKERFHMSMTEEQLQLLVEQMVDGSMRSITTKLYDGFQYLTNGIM

| Compound | IC50 [1] [nM] | EC50 [2] [µM] | EC50 ([3]; HCT-8, 48 h, read-out: (c) C.h.* CPE EC50 (μM)) [µM] | IC50 [4] [nM] | EC50 [3, 5] [µM] |
| --- | --- | --- | --- | --- | --- |
| CNC(=O)c1ccc(-c2cnn3ccc(C(=O)N(C)c4ccc(Cl)c(C(=O)OC)c4)cc23)cc1 [Example 1.16, Methyl 2-chloro-5-(N-methyl-3-(4-(methylcarbamoyl)phenyl)pyrazolo[1,5-a]pyridine-5-carboxamido)benzoate] | < 100 | < 0.1 | < 0.1 | 100 to 1000 |  |
| CNC(=O)c1ccc(-c2cnn3cnc(C(=O)N(C)c4ccc(Cl)c(C(=O)OC)c4)cc23)cc1 [Example 3.1, Methyl 2-chloro-5-(N-methyl-3-(4-(methylcarbamoyl)phenyl)pyrazolo[1,5-c]pyrimidine-5-carboxamido)benzoate] | < 100 | 0.1 to 1 |  | > 1000 | 0.1 to 1 |
| COC(=O)c1cc(Cl)ccc1N(C)C(=O)c1ccn2ncc(-c3ccc(C(N)=O)cc3)c2c1 [Example 4.1, Methyl 2-(3-(4-carbamoylphenyl)-N-methylpyrazolo[1,5-a]pyridine-5-carboxamido)-5-chlorobenzoate] | < 100 | < 0.1 |  | 100 to 1000 | < 0.1 |
